Assay results reported in patent US20240401101A1, “A LIVE CELL ASSAY TO DETERMINE PERMEABILITY OF TEST MOLECULES TO AND/OR WITHIN THE PEPTIDOGLYCAN SCAFFOLD OF BACTERIA CELLS” (priority 2021, published 2024).

How the values were obtained:
Assay type in all cases: cell-based, Mycobacterium smegmatis
M. smegmatis mc^2 155 [1] = experiment: Example IV: metabolic PG labeling of Msm with DBCO tags followed by azide fluorophore, flow cytometry
Description: General method for bacterial peptidoglycan modification. M. smegmatis strains was inoculated from the glycerol stock to the according media and grown for 24 hours until 0.5-0.6 OD, tetrapeptide probes were added to the media and the cells were grown overnight to achieve stationary phase. The cells were harvested the next day and spun down for 2 min at 3000 g, washed with phosphate buffered saline with tween80 (PBST, PBS with 0.05% tween 80) two times and resuspended in PBST to yield DBCO-modified M. smegmatis cells for further labeling and other experiments.
(§1) DBCOtetra compared with stereo control and single amino acid DBCO. M. smegmatis mc^2 155 was inoculated from stationary phase in 1:100 dilution to a fresh 7H9 media with ADC. 25 μM Dap-DBCO, DBCOtetra or DBCOtera(L) were added to the culture tubes respectively, and the cells were grown for 36-40 hours until stationary phase. The cells were harvested and spun down for 2 min at 3000 g, washed with PBST two times and resuspended in PBST. To a 96-well plate added 100 μL cells pre well with 50 μM FAM-N3 in triplicate. The plate was incubated in 37° C. for 1 h and spun down for 2 min at 3000 g. The supernatant was decanted, and the pellets were washed with PBST for 2 times and fixed with 4% formaldehyde for 15 mins. The samples were then analyzed by Attune™ NxT Acoustic Focusing Cytometer.
as §1, with “Confirm for click chemistry on PG.” for “DBCOtetra compared with stereo control and single amino acid DBCO.”, “μM” for “μM Dap-DBCO,”, “FL-tetra” for “DBCOtera(L)”, “uL” for “μL”, “FAM-N3 or 5-carboxy fluorescein accordingly” for “FAM-N3”
as §1, with “Different concentrations of DBCOtetra.” for “DBCOtetra compared with stereo control and single amino acid DBCO.”, “ADC. 5 μM, 10 μM or” for “ADC.”, “μM” for “μM Dap-DBCO,”, “DBCOtetra” for “DBCOtetra or DBCOtera(L)”, “1h” for “1 h”
Different concentration of FAM-N3 and different time. M. smegmatis mc^2 155 was inoculated from stationary phase in 1:100 dilution to a fresh 7H9 media with ADC. 25 μM DBCOtetra were added to the culture tubes, and the cells were grown for 36-40 hours until stationary phase. The cells were harvested and spun down for 2 min at 3000 g, washed with PBST two times and resuspended in PBST. To a 96-well plate added 100 μL cells pre well with different concentration of FAM-N3 described in the main text, 9 wells each. […] The samples were then analyzed by Attune™ NxT Acoustic Focusing Cytometer. […]

Msm ldtΔ5 (PM2750 Δ5) = experiment: TetD labeling of Ldt knock out strain; conditions: 25 μM TetD, 50 μM Fl-Az
Description: Ldt knock down strain. M. smegmatis mc^2 155 and PM2750 Δ5 were inoculated from the glycerol stock to the according media and grown for 24 hours until 0.5-0.6 OD, 25 μM DBCOtetra were added to the media, and the cells were grown overnight to achieve stationary phase. The cells were harvested and spinned down for 2 min at 3000 g, washed with PBST two times and resuspended in PBST. To a 96-well plate added 100 uL cells pre well with 50 μM FAM-N3 accordingly in triplicate. The plate was incubated in 37° C. for 1 h and spun down for 2 min at 3000 g. The supernatant was decanted, and the pellets were washed with PBST for 2 times and fixed with 4% formaldehyde for 15 mins. The samples were then analyzed by Attune™ NxT Acoustic Focusing Cytometer.

M. smegmatis cells = experiment: Ethidium bromide and Nile red whole-cell accumulation assay; conditions: cells treated with vehicle or TetD (25 or 50 μM); both dyes
Description: Ethidium bromide and Nile red whole-cell accumulation assay. To a Costar 96-well half area black opaque flat bottom plate added 100 uL DBCO-modified M. smegmatis cells each well with 5 μM ethidium bromide and 10 μM Nile red in triplicates, respectively. The fluorescent intensity at different time points were taken by a Synergy H1 microplate reader for 90 min with 3 min intervals and continuously orbital shaking. Wavelengths ethidium bromide, excitation 530 nm, emission 590 nm; Nile red, excitation 540 nm, emission 630 nm.

M. smegmatis mc^2 155 [2] = experiment: PAC-MAN competition with azide-modified test molecules; conditions: concentration dependent analysis, 2 h, then Fl-az; read-out: EC50 of apparent permeation
Description: Competition with test molecules. To a 96-well plate added 100 uL DBCO-modified M. smegmatis mc^2 155 cells pre well with 50 μM test molecules, in triplicate respectively. The plate was incubated in 37° C. for 2 h. The cells were spun down for 2 min at 3000 g. The supernatant was decanted, and 50 μM FAM-N3 was then added to each well, followed by incubation in 37° C. for 1 h. The cells were then spun down again, and the pellets were washed with PBST for 2 times and fixed with 4% formaldehyde for 15 mins. The samples were then analyzed by Attune™ NxT Acoustic Focusing Cytometer.
LLysN3 competition. To a 96-well plate added 100 uL DBCO-modified M. smegmatis mc^2 155 cells pre well with different concentration of L-Lys-N3 described in the main text, in triplicate respectively. The plate was incubated in 37° C. for 2 h. The cells were spun down for 2 min at 3000 g. […] The samples were then analyzed by Attune® NxT Acoustic Focusing Cytometer.
Next, we set out to benchmark the ability of the assay to report on the permeability of a set of test small molecules by performing a pilot screen with azide-conjugated compounds. […] Next, cells are treated with Fl-az to quantify the level of unreacted DBCO epitopes.^42 Finally, cells are analyzed by flow cytometry to measure total cellular fluorescence.

| SMILES | PG labeling levels (fluorescence) above vehicle treated cells (M. smegmatis mc^2 155 [1]; Msm, metabolic label then Fl-az) [fold] | fluorescence levels of Msm (M. smegmatis mc^2 155 [1]; metabolic label and/or fluorophore as named) | decrease of fluorescence levels relative to the parental cells (Msm ldtΔ5 (PM2750 Δ5)) [fold] | accumulation of the permeability probe (EtBr or Nile Red) (M. smegmatis cells) | EC50 (M. smegmatis mc^2 155 [2]) [µM] |
| --- | --- | --- | --- | --- | --- |
| C[C@H](NC(=O)CCC(=O)N1Cc2ccccc2C#Cc2ccccc21)C(=O)N[C@H](CCC(=O)N[C@@H](CCCCN)C(=O)N[C@H](C)C(=O)O)C(N)=O [TetD] | ~85 | concentration-dependent increase in cellular fluorescence | ~7 | no significant change in the accumulation of the permeability probe |  |
| [N-]=[N+]=NCCCC[C@H](N)C(=O)O [Lys] |  |  |  |  | 100 |
